By pIC50 is commonly meant the negative decadic logarithm of the IC50, by convention in mol/L. In general, melting point refers to the temperature of the solid-liquid transition.

Data set [1] relates to mice (male ddY). The data set can be described thus: Social interaction test (antianxiety effect). It is filed as in vivo, mouse. To be noted: oral, 1 hour before test; statistically significant increase in social interaction time vs vehicle (Dunnett's test, 5%). The text has this: The test is a behavioral pharmacological test wherein social interaction time which would arise between 2 animals (mice, rats or other) in a test apparatus is considered to be as an anxious indicator [see; File, S. E., J. Neurosci. Methods, 2, 219-238 (1980)]. It is known that a bright and unfamiliar test apparatus which is an aversive condition for mice or rats may suppress a social interaction of the animals and such suppressed social interaction may be restored by an antianxiety drug such as benzodiazepines.
A glass beaker which was inverted onto a frosted glass plate was brightly illuminated with a light source (ca. 1200 lux in the apparatus), and it was used as a test apparatus. Two mice (male ddY, 22-32 g) that were housed in separate home cages were orally treated with a test compound and returned to their home cages. One hour after the oral administration, the two mice were then placed together in the test apparatus, and the amount of time spent in social interaction by the two mice during a 15-minute period was recorded. The social interaction was defined as grooming and sniffing of the partner, genital investigation of the partner, climbing over or crawling under the partner. Four to five pairs (8 to 10 mice) were used per a group.
An antianxiety effect of the test compounds was presented as a minimum effective dose which indicated statistically significant increase in social interaction time as compared with a vehicle control group (Dunnett's test, Significance level: 5%).

In data set [2] the target is T1, mitochondrial benzodiazepine receptor (MBR) (Rattus norvegicus, UniProt P16257).
T1 construct: from tissue; host or cells: kidney of male Wistar rats (crude membrane preparation)
The data set can be described thus: Binding assay of mitochondrial benzodiazepine receptor (MBR), [3H]4'-chlorodiazepam (Ro5-4864), rat kidney membrane-preparation. The note with it: rat kidney membranes, [3H]4'-chlorodiazepam 0.5 nM, 0° C. for 150 minutes. Summed up:
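Kidney membranes from male Wistar rats were incubated with 0.5 nM [3H]Ro5-4864 in pH 7.4 sodium/potassium phosphate buffer with 100 mM NaCl for 150 min at 0 °C, then filtered. Nonspecific binding was defined with 50 μM diazepam. IC50 was obtained by nonlinear least-squares fitting of specific-binding inhibition.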

Data set [3] has as its system male Std-Wistar rats. Briefly: Forced swimming test (antidepressant effect). It is filed as in vivo, rat. The note with it: 1 mg/kg orally 3 times (24 hours, 4 hours and 1 hour before the test); 6-minute period; vs vehicle, p<0.01. How it is done:
An animal (mouse or rat) which is forced to swim in an inescapable water tank show an immobile posture, thought to reflect a state of behavioral despair, after an initial period of vigorous swimming activity. The forced swimming test, a behavioral despair model, is frequently used for evaluating antidepressant effect since a lot of antidepressants reduce the duration of immobility induced by forced swimming. The antidepressant effect of the compound of the present invention was evaluated in the forced swimming test based on the method of Porsolt R. D. et al. [see; Eur. J. Pharmacol., 47, 379-391 (1978)] with a minor modification.
In the test, a group of five male Std-Wistar rats, weighing 110-150 g, which were selected after training session was used. […]
The test compound (the compound of Example 40) was orally administered 3 times, i.e., 24 hours, 4 hours and 1 hour before the test. One hour after the final oral administration, the rats were put into the water and the immobile time observed during a 6-minute period was recorded. The effect shortening the immobile time in the test compound-treated group was evaluated using a Dunnett's multiple comparison test as compared with the vehicle control group.

pIC50: −log10 of the molar value.

As to “2-[((cis-3,5-dimethylpiperidin-1-yl)-carbonyl]-1-(2-pyrimidinyl)indoline [Example 1]”, the Minimum effective dose in data set [1] is given as 0.001 mg/kg. Further, in data set [2], the pIC50 is 8.70.
Compound `C[C@H]1CCCN(C(=O)[C@@H]2Cc3ccccc3N2c2ncccn2)C1` [Example 23, (S)-2-[(S)-3-methylpiperidin-1-yl]carbonyl-1-(2-pyrimidinyl)indoline] had a melting point of 212 to 214 °C. Further, in data set [1], the Minimum effective dose was found to be 0.01 mg/kg. Moreover, in data set [2], the pIC50 is 9.02.
In the case of `C[C@@H]1C[C@H](C)CN(C(=O)[C@@H]2Cc3ccccc3N2c2ncccn2)C1` [Example 24, (S)-2-(cis-3,5-dimethylpiperidin-1-yl)carbonyl-1-(2-pyrimidinyl)indoline], the melting point was 163 to 164 °C. Besides, in data set [1], the Minimum effective dose was determined as 0.001 mg/kg. The same compound gave a pIC50 in data set [2] of 9.07.
For the compound `C[C@H]1CCCN(C(=O)[C@@H]2Cc3ccccc3N2c2ccc(=O)n(C)n2)C1` [Example 40, (S)-1-(1-methyl-6-oxo-1,6-dihydropyridazin-3-yl)-2-[[(S)-3-methylpiperidin-1-yl]carbonyl]indoline], the melting point was in the range of 219 to 221 °C. The Minimum effective dose in data set [1] is on record as 1 mg/kg. Moreover, the pIC50 in data set [2] is 8.22. The “shortening of the immobile time” value in data set [3] was found to be 28%.
As for `C[C@@H]1C[C@H](C)CN(C(=O)[C@@H]2Cc3ccccc3N2c2ccc(=O)n(C)n2)C1` [Example 41, (S)-1-(1-methyl-6-oxo-1,6-dihydropyridazin-3-yl)-2-[(cis-3,5-dimethylpiperidin-1-yl)carbonyl]indoline], the melting point lay in the range of 200 to 204 °C. In data set [1], this compound gave a Minimum effective dose of 0.01 mg/kg. The same compound gave a pIC50 in data set [2] of 8.62.
In data set [1], `C[C@@H]1C[C@H](C)CN(C(=O)[C@@H]2Cc3ccccc3N2c2cccnn2)C1` [Example 57, (S)-2-[(cis-3,5-dimethylpiperidin-1-yl)-carbonyl]-1-(3-pyridazinyl)indoline] yielded a Minimum effective dose of 0.1 mg/kg. The compound further gave a pIC50 in data set [2] of 8.69.
As for `C[C@H]1CCCN(C(=O)[C@@H]2Cc3ccccc3N2c2cccnn2)C1` [Example 63, (S)-2-[(S)-3-methylpiperidin-1-yl]carbonyl-1-(3-pyridazinyl)indoline], the melting point fell in the range of 143 to 145 °C. For the same compound, in data set [1], the Minimum effective dose is 0.01 mg/kg. Also, in data set [2], the pIC50 is 8.60.
In the case of `CCn1nc(N2c3ccccc3C[C@H]2C(=O)N2CCC[C@H](C)C2)ccc1=O` [Example 129, (S)-1-(1-ethyl-6-oxo-1,6-dihydropyridazin-3-yl)-2-[[(S)-3-methylpiperidin-1-yl]carbonyl]indoline], the Minimum effective dose in data set [1] is on record as 1 mg/kg. In addition, the pIC50 in data set [2] is 8.25.

For the origin of these results see patent US20080221114A1, “2-(Cyclic Aminocarbonyl) Indoline Derivative and Medicinal Composition Containing the Same” (priority 2005, published 2008).
